Laboratory results reported in article PMC8695704 (RSC Advances, 2021).

Biological target: T1, recombinant human S-COMT (Homo sapiens, UniProt P21964)
T1 sequence (P21964 1-221 isoform P21964-2): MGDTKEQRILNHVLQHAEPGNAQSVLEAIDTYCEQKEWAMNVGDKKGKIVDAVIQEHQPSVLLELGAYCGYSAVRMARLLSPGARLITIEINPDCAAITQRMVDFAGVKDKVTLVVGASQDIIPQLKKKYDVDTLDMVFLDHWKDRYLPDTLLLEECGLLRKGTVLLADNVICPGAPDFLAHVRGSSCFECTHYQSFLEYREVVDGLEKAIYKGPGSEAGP
Assay: COMT inhibition assay with the fluorescent probe substrate 3-BTD
Type: biochemical
Details: IC50, 3-BTD as substrate

IC50	Compound
0.221 ± 0.032 µM	O=C(O)[C@H]1O[C@@H](Oc2cc3oc(-c4ccc(O)cc4)cc(=O)c3c(O)c2O)[C@H](O)[C@@H](O)[C@@H]1O [Scutellarin, scutellarin]
24.1 ± 4.96 µM	COc1c(O)cc(O)c2c(=O)cc(-c3ccccc3)oc12 [Wogonin, wogonin]
